Experimental data taken from article PMC5502112 (Brain research, 2017).
Where a chain is given by its changes, count along the chain named.

How the values were obtained:
Assay in all cases: inside-out patch clamp, HEK293
Assay type in all cases: biochemical
Kir4.1 [1] = target: T1, Kir4.1 (Rattus norvegicus, UniProt P49655)
T1 sequence (P49655 1-379): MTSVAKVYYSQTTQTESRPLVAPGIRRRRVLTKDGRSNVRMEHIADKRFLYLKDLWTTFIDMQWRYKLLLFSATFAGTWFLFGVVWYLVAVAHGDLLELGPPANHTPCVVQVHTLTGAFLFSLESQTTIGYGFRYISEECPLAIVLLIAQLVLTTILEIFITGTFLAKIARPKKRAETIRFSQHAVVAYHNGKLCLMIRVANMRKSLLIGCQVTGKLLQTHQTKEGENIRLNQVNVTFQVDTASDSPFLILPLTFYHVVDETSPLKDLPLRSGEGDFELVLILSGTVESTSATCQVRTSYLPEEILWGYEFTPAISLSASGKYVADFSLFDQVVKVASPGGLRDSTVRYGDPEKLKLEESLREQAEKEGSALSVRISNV

Kir4.1 [2] = target: T2, Kir4.1 (Rattus norvegicus, UniProt P49655, T128A); conditions: read-out: % inhibition at 10 μM
T2 sequence (P49655 1-379 T128A): T1 sequence (P49655 1-379) with T128A

Kir4.1 [3] = target: T3, Kir4.1 (Rattus norvegicus, UniProt P49655, T127A); conditions: read-out: % inhibition at 10 μM
T3 sequence (P49655 1-379 T127A): T1 sequence (P49655 1-379) with T127A

Kir4.1 [4] = target: T1, Kir4.1; conditions: read-out: % inhibition at 10 μM
Kir4.1 [5] = target: T4, Kir4.1 (Rattus norvegicus, UniProt P49655, E158N); conditions: read-out: % inhibition at 10 μM
T4 sequence (P49655 1-379 E158N): T1 sequence (P49655 1-379) with E158N

## CCN(CC)CCCC(C)Nc1c2ccc(Cl)cc2nc2ccc(OC)cc12 (centres unmarked) [quinacrine]
Kir4.1 [1]
  IC50: 1800 ± 300 nM
Kir4.1 [2]
  inhibition at 10 µM: 66.1 ± 1.1%
Kir4.1 [3]
  inhibition at 10 µM: 89.7 ± 1.1%
Kir4.1 [4]
  inhibition at 10 µM: 88.3 ± 1.5%
Kir4.1 [5]
  inhibition at 10 µM: 79.8 ± 2.2%
